Measured values from patent US12545674B2, “Crystal of trifluoromethyl/chloro disubstituted sulfonamide selective BCL-2 inhibitor” (priority 2020, dated 2026).

Experiments:
[1] = Stability test of crystalline forms (high temperature, high humidity, irradiation; HPLC purity and crystal form); type: physicochemical
Description: Test samples were put into an open and proper clean container, and left to stand at 60° C. for 10 days. Samples were collected on day 5 and day 10;
Test samples were put into a closed humid container, and left to stand at 92.5%±5% RH/25° C. for 10 days. Samples were collected on day 5 and day 10;
Test samples were put into a lighting box or other suitable lighting devices (open) with fluorescent lamps at 4500 1×±500 1× for 10 days. Samples were collected on day 5 and day 10.
In the three conditions, the purity of the product and the contents of related substances were detected after the test samples were placed in the experimental conditions. • Instrument: Thermo U3000 high-performance liquid chromatography; • Detector: thermo VWD-3100 UV absorption detector/DAD-3000 diode array detector; • Chromatographic column: XSelect CSH C18 (4.6×150 mm, 3.5 μm); • Injection volume: 10 μL; detection wavelength: 280 nm; flow rate: 1.0 mL/min; column temperature: 30° C.; • Mobile phase: phase A: 0.1% of aqueous formic acid solution, phase B: acetonitrile, gradient elution; • Preparation of sample solution: An appropriate amount of the product was precisely, and dissolved in methanol. The solution was quantitatively diluted to obtain a solution containing about 0.5 mg per 1 mL as a test solution.

[2] = Hygroscopicity test (Chinese Pharmacopoeia General Chapter 9103); type: physicochemical; details: 25° C.±1° C., relative humidity 80%±2%, 24 h
From the text: For the method and conditions of the hygroscopicity test, please refer to the “Guidelines for the Hygroscopicity Test of Drugs” (General Chapter 9103, Chinese Pharmacopoeia, Volume IV, 2015 Edition). Hygroscopicity refers to the capability or degree of a substance for absorbing water in certain temperature and humidity conditions. The test samples were solid drug substances meeting the specifications, and the test results may be used as a reference for selection of suitable drug packaging and storage conditions. • (1) A dried glass weighing bottle with a plug (outer diameter: 50 mm; height: 15 mm) was taken and placed in a suitable thermostatic dryer (with saturated ammonium chloride or ammonium sulfate solution placed in the lower part) at 25° C.±1° C. or an artificial climate box (with a set temperature at 25° C.±1° C. and relative humidity at 80%±2%) on the day before the test, and the weight (m1) was precisely measured. • (2) An appropriate amount of test sample was taken and spread in the above weighing bottle, with the thickness of the test sample being about 1 mm in general, and the weight (m2) was precisely measured. • (3) The weighing bottle was opened and placed in the above conditions at constant temperature and humidity for 24 h together with the cap. • (4) The weighing bottle was capped, and the weight (m3) was precisely measured.

[3] = High humidity 92.5 ± 5% RH/25° C., Day 0
[4] = High humidity 92.5 ± 5% RH/25° C., Day 5
[5] = High humidity 92.5 ± 5% RH/25° C., Day 10
[6] = High temperature 60° C., open container, Day 0
[7] = High temperature 60° C., open container, Day 5
[8] = High temperature 60° C., open container, Day 10
[9] = Irradiation 4500 ± 500 lx, Day 0
[10] = Irradiation 4500 ± 500 lx, Day 5
[11] = Irradiation 4500 ± 500 lx, Day 10

SMILES | Crystalline form [1, 3] | Purity [1, 3] [%] | Crystalline form [1, 4] | Purity [1, 4] [%] | Crystalline form [1, 5] | Purity [1, 5] [%] | Crystalline form ([1]; High temperature 60° C., Day 0) | Crystalline form ([1]; High temperature 60° C., Day 5) | Crystalline form ([1]; High temperature 60° C., Day 10) | Purity [1, 6] [%] | Purity [1, 7] [%] | Purity [1, 8] [%] | Crystalline form [1, 9] | Purity [1, 9] [%] | Crystalline form [1, 10] | Purity [1, 10] [%] | Crystalline form [1, 11] | Purity [1, 11] [%] | Hygroscopic weight gain [2] [wt %]
CC1(C)CCC(CN2CCN(c3ccc(C(=O)NS(=O)(=O)c4ccc(NC[C@H]5COCCO5)c([N+](=O)[O-])c4)c(Oc4cnc5[nH]ccc5c4)c3)CC2)=C(c2ccc(C(F)(F)F)cc2Cl)C1 [Amorphous form] | Amorphous | 97.91 | Amorphous | 97.85 | Amorphous | 97.89 | Amorphous | Amorphous | Amorphous | 97.91 | 97.51 | 97.33 | Amorphous | 97.91 | Amorphous | 95.96 | Amorphous | 93.83 | 
CC1(C)CCC(CN2CCN(c3ccc(C(=O)NS(=O)(=O)c4ccc(NC[C@H]5COCCO5)c([N+](=O)[O-])c4)c(Oc4cnc5[nH]ccc5c4)c3)CC2)=C(c2ccc(C(F)(F)F)cc2Cl)C1 [Crystalline form A] |  | 97.92 |  | 97.84 |  | 97.91 |  |  |  | 97.92 | 97.41 | 97.17 |  | 97.92 |  | 97.07 |  | 96.62 | 1.38
CC1(C)CCC(CN2CCN(c3ccc(C(=O)NS(=O)(=O)c4ccc(NC[C@H]5COCCO5)c([N+](=O)[O-])c4)c(Oc4cnc5[nH]ccc5c4)c3)CC2)=C(c2ccc(C(F)(F)F)cc2Cl)C1 [Crystalline form B] |  | 98.44 |  | 98.45 |  | 98.36 |  |  |  | 98.44 | 98.34 | 98.22 |  | 98.44 |  | 98.22 |  | 97.68 | 0.30
CC1(C)CCC(CN2CCN(c3ccc(C(=O)NS(=O)(=O)c4ccc(NC[C@H]5COCCO5)c([N+](=O)[O-])c4)c(Oc4cnc5[nH]ccc5c4)c3)CC2)=C(c2ccc(C(F)(F)F)cc2Cl)C1 [Crystalline form C] |  | 98.56 |  | 98.70 |  | 98.64 |  |  |  | 98.56 | 98.25 | 97.31 |  | 98.56 |  | 98.45 |  | 98.15 | 0.11
CC1(C)CCC(CN2CCN(c3ccc(C(=O)NS(=O)(=O)c4ccc(NC[C@H]5COCCO5)c([N+](=O)[O-])c4)c(Oc4cnc5[nH]ccc5c4)c3)CC2)=C(c2ccc(C(F)(F)F)cc2Cl)C1 [Crystalline form D] |  |  |  |  |  |  |  |  |  |  |  |  |  |  |  |  |  |  | 0.75
CC1(C)CCC(CN2CCN(c3ccc(C(=O)NS(=O)(=O)c4ccc(NC[C@H]5COCCO5)c([N+](=O)[O-])c4)c(Oc4cnc5[nH]ccc5c4)c3)CC2)=C(c2ccc(C(F)(F)F)cc2Cl)C1 [Crystalline form E] |  | 98.02 |  |  |  | 97.89 |  |  |  | 98.02 |  | 97.88 |  | 98.02 |  |  |  | 97.71 | 0.11
CC1(C)CCC(CN2CCN(c3ccc(C(=O)NS(=O)(=O)c4ccc(NC[C@H]5COCCO5)c([N+](=O)[O-])c4)c(Oc4cnc5[nH]ccc5c4)c3)CC2)=C(c2ccc(C(F)(F)F)cc2Cl)C1 [Crystalline form F] |  |  |  |  |  |  |  |  |  |  |  |  |  |  |  |  |  |  | 0.76
CC1(C)CCC(CN2CCN(c3ccc(C(=O)NS(=O)(=O)c4ccc(NC[C@H]5COCCO5)c([N+](=O)[O-])c4)c(Oc4cnc5[nH]ccc5c4)c3)CC2)=C(c2ccc(C(F)(F)F)cc2Cl)C1 [Crystalline form H] |  |  |  |  |  |  |  |  |  |  |  |  |  |  |  |  |  |  | 0.25
